Structures can show the parent of a compound that is named as a salt.
Experiment: solubility
Assay type: physicochemical

Structure (SMILES) | solubility in water-immiscible organic solvents (water-immiscible organic solvents) | solubility in alcohol and chloroform (ammonium salt, alcohol and chloroform) | solubility in water (ammonium salt, water at pH 7.0 or higher)
CO[C@@]1(NC(=O)CCC[C@@H](N)C(=O)O)C(=O)N2C(C(=O)O)=C(COC(N)=O)CS[C@@H]21 [Cephamycin C, reference compound] | virtually insoluble |  | 
CC=CC=CC1OC(O)(C(CC)C(=O)NCC=CC=C(C)C(OC)C(C)C2OC(C=CC=CC=C(C)C(=O)c3c(O)ccn(C)c3=O)C(O)C2O)C(O)C(OC2OC(C)C(OC3OC(C)C(OC)C(O)C3OC)C(OC)C2O)C1(C)C (stereo not drawn) [FR-02A as the ammonium salt] |  | soluble | moderately soluble
